From patent US20080300135A1, “5-Alkyl-7-Amino-6-Heteroaryl-1,2,4-Triazolo[1,5-A]Pyrimidine Compounds and Their Use for Controlling Harmful Fungi” (BASF Aktiengesellschaft, priority 2005, published 2008) come the findings set out here.

In one assay the test system is Pyricularia oryzae. In kind it is cell-based. The settings on record: 125 ppm, day 7 after inoculation, absorption 405 nm, control = 100%.
For another assay, the system named is Puccinia recondita. As to the kind of experiment: Curative activity against brown rust of wheat (greenhouse test). It is filed as in vivo. The settings on record: 250 ppm, curative spray on wheat seedlings cv. Kanzler, 7 days; untreated control 90% infected. Here is the method:
The active compounds were prepared separately as a stock solution with 25 mg of active compound which was made up to 10 ml with a mixture of acetone and/or DMSO and the emulsifier Uniperol® EL (wetting agent having emulsifying and dispersing action based on ethoxylated alkylphenols) in a solvent/emulsifier volume ratio of 99 to 1. The solution was then made up to 100 ml with water. This stock solution was diluted to the active compound concentration stated below using the solvent/emulsifier/water mixture described.
Example No. 1—Curative activity against brown rust of wheat caused by Puccinia recondita
Leaves of potted wheat seedlings of the cultivar “Kanzler” were inoculated with a spore suspension of brown rust (Puccinia recondita). The pots were then placed in a chamber with high atmospheric humidity (90 to 95%) and 20 to 22° C. for 24 hours. During this time, the spores germinated and the germ tubes penetrated into the leaf tissue. The next day, the infected plants were sprayed to runoff point with the above-described active compound solution at the active compound concentration stated below. After the spray coating had dried on, the test plants were cultivated in a greenhouse at temperatures between 20 and 22° C. and at 65 to 70% relative atmospheric humidity for 7 days. The extent of the rust fungus development on the leaves was then determined.

`Cc1cc(C)n(-c2c(C)nc3ncnn3c2N2CCC(C)CC2)n1` [Compound C-1, 6-(3,5-Dimethylpyrazol-1-yl)-5-methyl-7-(4-methylpiperidin-1-yl)-[1,2,4]-triazolo[1,5-a]pyrimidin] registered a relative growth in the assay with Pyricularia oryzae of 0%. Further, the infection in the assay on Puccinia recondita came to 10%.
